Measurements: patent publication US7517889B2, “2,6-substituted-4-monosubstitutedamino-pyrimidine as prostaglandin D2 receptor antagonists” (Aventis Pharmaceuticals, Inc., priority 2004, dated 2009)
Where a name gives a salt, the structure may show the parent alone.

Each molecule was assayed against T1, DP receptor (Homo sapiens, UniProt Q13258) (assay: SPA cAMP assay in human LS174 T cells (human DP functional assay)). Settings: inhibition of PGD2 (15 nM final) stimulated cAMP, LS174T cells expressing endogenous DP receptor.
T1 construct: the human cell line LS174T, which expresses the endogenous DP receptor; endogenous in cells; host or cells: LS174T human cell line
T1 sequence (Q13258 1-359): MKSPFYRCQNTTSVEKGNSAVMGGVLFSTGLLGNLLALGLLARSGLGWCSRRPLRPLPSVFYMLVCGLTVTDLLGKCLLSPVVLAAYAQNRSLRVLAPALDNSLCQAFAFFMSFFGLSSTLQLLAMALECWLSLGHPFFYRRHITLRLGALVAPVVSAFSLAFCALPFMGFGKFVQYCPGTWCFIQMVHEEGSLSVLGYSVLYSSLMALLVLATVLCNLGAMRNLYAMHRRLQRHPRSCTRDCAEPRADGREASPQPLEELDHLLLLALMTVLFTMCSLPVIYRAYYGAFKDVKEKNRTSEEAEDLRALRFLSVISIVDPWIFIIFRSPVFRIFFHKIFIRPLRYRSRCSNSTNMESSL
Format: cell-based
Outline: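 LS174T cells with endogenous DP receptor, 45,000/well seeded overnight, exposed to compounds at 11 points for 15 min at 37 °C in buffer containing IBMX, with PGD2 stimulation.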

Row | IC50 | SMILES
1 | 8.2 nM | COc1ccc(CCNc2cc(-c3ccc(C)s3)nc(OC)n2)cc1 [Example 8(e), [2-Methoxy-6-(5-methyl-thiophen-2-yl)-pyrimidin-4-yl]-[2-(4-methoxy-phenyl)-ethyl]-amine]
2 | 223 nM | CCOC(=O)C1(c2cccc(-c3cc(NCCc4ccc(Cl)cc4Cl)nc(OC)n3)c2)CCOCC1 [Example 80(c), 4-(3-{6-[2-(2,4-Dichloro-phenyl)-ethylamino]-2-methoxy-pyrimidin-4-yl}-phenyl)-tetrahydro-pyran-4-carboxylic acid ethyl ester]
3 | 2150 nM | COc1nc(NCCc2ccc3c(c2)OC(F)(F)O3)cc(-c2ccc[n+]([O-])c2)n1 [Example 21(b), [2-(2,2-Difluoro-benzo[1,3]dioxol-5-yl)-ethyl]-[2-methoxy-6-(1-oxy-pyridin-3-yl)-pyrimidin-4-yl]-amine]
4 | 0.5 nM | COc1ccc(CCNc2cc(-c3ccc(OC)c(-c4nnn[nH]4)c3)nc(OC)n2)cc1 [Example 24(c), {2-Methoxy-6-[4-methoxy-3-(1H-tetrazol-5-yl)-phenyl]-pyrimidin-4-yl}-[2-(4-methoxy-phenyl)-ethyl]-amine]
5 | 7 nM | COc1nc(NCCc2ccc(Cl)cc2Cl)cc(N2CCC(C(=O)O)CC2)n1 [Example 97, 1-{6-[2-(2,4-Dichloro-phenyl)-ethylamino]-2-methoxy-pyrimidin-4-yl}-piperidine-4-carboxylic acid]
6 | 0.8 nM | COc1ccc(CCNc2cc(-c3ccc(/C(C)=N\O)s3)nc(OC)n2)cc1 [Example 26(e), 1-(5-{2-Methoxy-6-[2-(4-methoxy-phenyl)-ethylamino]-pyrimidin-4-yl}-thiophen-2-yl)-ethanone oxime]
7 | 4 nM | COc1nc(NCCc2ccc(OC(F)F)cc2)cc(-c2cccc(NC(C)=O)c2)n1 [Example 46(c), N-(3-{6-[2-(4-Difluoromethoxy-phenyl)-ethylamino]-2-methoxy-pyrimidin-4-yl}-phenyl)-acetamide hydrochloride]
8 | 60 nM | CCOC(=O)C(C)(C)Oc1cccc(-c2cc(NCCc3ccc(OC)cc3)nc(OC)n2)c1 [Example 22(a), 2-(3-{2-Methoxy-6-[2-(4-methoxy-phenyl)-ethylamino]-pyrimidin-4-yl}-phenoxy)-2-methyl-propionic acid ethyl ester]
9 | 655 nM | CCOc1nc(NCCc2ccc(OC)c(OC)c2)cc(-c2ccc(OC)c(OC)c2)n1 [Example 17(b), [6-(3,4-Dimethoxy-phenyl)-2-ethoxy-pyrimidin-4-yl]-[2-(3,4-dimethoxy-phenyl)-ethyl]-amine]
10 | 7 nM | COc1nc(NCCc2ccc(Cl)cc2Cl)cc(-c2cccc(C(=O)OCCN3CCN(C)CC3)c2)n1 [Example 76, 3-{6-[2-(2,4-Dichloro-phenyl)-ethylamino]-2-methoxy-pyrimidin-4-yl}-benzoic acid 2-(4-methyl-piperazin-1-yl)-ethyl ester]
11 | 278 nM | COc1nc(NCCc2ccc(Cl)cc2Cl)cc(-c2cccc(C(C)(C)C(=O)NC3CCOCC3)c2)n1 [Example 95(d), 2-(3-{6-[2-(2,4-Dichloro-phenyl)-ethylamino]-2-methoxy-pyrimidin-4-yl}-phenyl)-N-(tetrahydro-pyran-4-yl)-isobutyramide]

Row | SMILES | IC50
12 | COc1nc(NC(C)Cc2ccc(Cl)cc2)cc(-c2ccc(OC)c(OC)c2)n1 (centres unmarked) [Example 43(a), [2-(4-Chloro-phenyl)-1-methyl-ethyl]-[6-(3,4-dimethoxy-phenyl)-2-methoxy-pyrimidin-4-yl]-amine] | 1730 nM
13 | COc1nc(NCCc2ccc(OC(F)F)cc2)cc(-c2cccc(S(C)(=O)=O)c2)n1 [example 46(d), [2-(4-Difluoromethoxy-phenyl)-ethyl]-[6-(3-methanesulfonyl-phenyl)-2-methoxy-pyrimidin-4-yl]-amine hydrochloride] | 17 nM
14 | COc1ccc(CCNc2cc(-c3ccc4cn[nH]c4c3)nc(OC)n2)cc1 [Example 53(b), [6-(1H-Indazol-6-yl)-2-methoxy-pyrimidin-4-yl]-[2-(4-methoxy-phenyl)-ethyl]-amine] | 0.95 nM
